# “And” between values parts separate entries of the source, which are not always exact repeats. Identical values can stand only once.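 Five compound concentrations were applied to cells in 96-well plates for 48 hours; endpoints were derived by simple linear interpolation of the resulting dose-response curve. The concentration for 50% growth inhibition is given as GI50.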 The source made the active and inactive calls. Rule as the data show it: active = GI50 up to about 1.1 µM and inactive = higher.
# Columns and labels:
# Test in all cases: NCI anticancer screen, dose series, 48 h
# [1] = system: 786-0
# [2] = system: A549
# [3] = system: COLO 205
# [4] = system: DU-145
# [5] = system: HCT-116
# [6] = system: HCT-15
# [7] = system: HOP-62
# [8] = system: HT-29
# [9] = system: IGROV-1
# [10] = system: LOX IMVI
# [11] = system: M14
# [12] = system: MOLT-4
# [13] = system: NCI-H226
# [14] = system: OVCAR-8
# [15] = system: SF-539
# [16] = system: SNB-75
# [17] = system: SW-620
# [18] = system: T47D
# [19] = system: UO-31
# [20] = system: HCC 2998
Structure (SMILES),GI50 [1],GI50 [2],GI50 [3],GI50 [4],GI50 [5],GI50 [6] [µM],GI50 [7],GI50 [8],GI50 [9],GI50 [10],GI50 [11],GI50 [12],GI50 [13],GI50 [14],GI50 [15],GI50 [16],GI50 [17],GI50 [18],GI50 [19],GI50 [20]
O=C(O)CN1C(=O)CN=C(c2ccccn2)c2cc(Cl)ccc21,> 100 µM (inactive),> 100 µM (inactive),> 100 µM (inactive),> 100 µM (inactive),> 100 µM (inactive),> 100,> 100 µM (inactive),> 100 µM (inactive),> 100 µM (inactive),> 100 µM (inactive),> 100 µM (inactive),1.24 µM (inactive),> 100 µM (inactive),> 100 µM (inactive),> 100 µM (inactive),> 100 µM (inactive),> 100 µM (inactive),> 100 µM (inactive),> 100 µM (inactive),
COc1cc([C@H]2CC(=O)C[C@H](c3cc(OC)c(OC)c(OC)c3)C23C(=O)c2ccccc2C3=O)cc(OC)c1OC,77.6 µM (inactive),> 100 µM (inactive),> 100 µM (inactive),> 100 µM (inactive),19.8 µM (inactive),> 100,51.5 µM (inactive),> 100 µM (inactive),> 100 µM (inactive),,> 100 µM (inactive),29.1 µM (inactive),54.5 µM (inactive),40 µM (inactive),45.7 µM (inactive),,> 100 µM (inactive),> 100 µM (inactive),> 100 µM (inactive),> 100 µM (inactive)
CC(=O)OCC1OC(n2c(C)c(C)cc(C#N)c2=S)C(OC(C)=O)C(OC(C)=O)C1OC(C)=O (stereo unspecified),> 100 µM (inactive),> 100 µM (inactive),,> 100 µM (inactive),> 100 µM (inactive),> 100,> 100 µM (inactive) and 91 µM (inactive),> 100 µM (inactive),> 100 µM (inactive),> 100 µM (inactive),> 100 µM (inactive),> 100 µM (inactive),> 100 µM (inactive),> 100 µM (inactive),> 100 µM (inactive),,> 100 µM (inactive),> 100 µM (inactive),> 100 µM (inactive),> 100 µM (inactive)
O=C(O)/C=C(/C(=O)O)C12CCN3CC4=CCOC5CC(=O)NC1C5C4CC32 (stereo unspecified),> 100 µM (inactive),> 100 µM (inactive),> 100 µM (inactive),> 100 µM (inactive),> 100 µM (inactive),> 100,> 100 µM (inactive),> 100 µM (inactive),> 100 µM (inactive),> 100 µM (inactive),> 100 µM (inactive),> 100 µM (inactive),> 100 µM (inactive),> 100 µM (inactive),> 100 µM (inactive),> 100 µM (inactive),> 100 µM (inactive),> 100 µM (inactive),> 100 µM (inactive),
CCCCCC(=O)NC(=S)Nc1nnn[nH]1,> 100 µM (inactive),> 100 µM (inactive),> 100 µM (inactive),> 100 µM (inactive),> 100 µM (inactive),> 100,> 100 µM (inactive),,> 100 µM (inactive),> 100 µM (inactive),> 100 µM (inactive),> 100 µM (inactive),,,> 100 µM (inactive),> 100 µM (inactive),> 100 µM (inactive),> 100 µM (inactive),> 100 µM (inactive),> 100 µM (inactive)
C/C(C=O)=C/[C@@]1(C)O[C@@H](C)[C@@](C)(O)[C@@H]1O,17 µM (inactive),> 100 µM (inactive),40.7 µM (inactive),78.9 µM (inactive),93.1 µM (inactive),22.2,63.1 µM (inactive),> 100 µM (inactive),> 100 µM (inactive),95.5 µM (inactive),32.5 µM (inactive),5.62 µM (inactive),> 100 µM (inactive),18.8 µM (inactive),40.2 µM (inactive),,87.3 µM (inactive),> 100 µM (inactive),1.3 µM (inactive),17.4 µM (inactive)
C=Cn1c([N+](=O)[O-])cnc1/C=C/c1ccc(C(=O)OCCN2CCOCC2)cc1,> 100 µM (inactive),> 100 µM (inactive),> 100 µM (inactive),> 100 µM (inactive),> 100 µM (inactive),> 100,> 100 µM (inactive),> 100 µM (inactive),> 100 µM (inactive),> 100 µM (inactive),> 100 µM (inactive),38 µM (inactive),> 100 µM (inactive),> 100 µM (inactive),> 100 µM (inactive),> 100 µM (inactive),> 100 µM (inactive),> 100 µM (inactive),,
Cc1ccc(S(=O)(=O)N2CCN3C(=O)c4ccccc4C32c2ccc(F)cc2)cc1 (stereo unspecified),> 100 µM (inactive),51.4 µM (inactive),34.9 µM (inactive),78.7 µM (inactive),42.1 µM (inactive),80.9,> 100 µM (inactive),40.6 µM (inactive),22.9 µM (inactive),,> 100 µM (inactive),23.8 µM (inactive),64 µM (inactive),> 100 µM (inactive),,72.1 µM (inactive),87.9 µM (inactive),56.6 µM (inactive),44.5 µM (inactive),> 100 µM (inactive)
CCOC(=O)c1c(SCCCN2CCCCC2)n(-c2ccccc2)c(=S)n(-c2ccccc2)c1=O,3.87 µM (inactive),17.3 µM (inactive),16.4 µM (inactive),16.4 µM (inactive),12.4 µM (inactive),17.4,33 µM (inactive),20.3 µM (inactive),,,16.5 µM (inactive),7.26 µM (inactive),15.6 µM (inactive),19.3 µM (inactive),14.8 µM (inactive),,17.7 µM (inactive),16.7 µM (inactive),15.5 µM (inactive),17.3 µM (inactive)
OB(O)c1ccccc1C#Cc1ccccc1B(O)O,28.4 µM (inactive),18.5 µM (inactive),16.2 µM (inactive),15.9 µM (inactive),18.1 µM (inactive),20.9,23.9 µM (inactive),42.7 µM (inactive),3.14 µM (inactive),19 µM (inactive),22.7 µM (inactive),40.5 µM (inactive),,22.6 µM (inactive),18.4 µM (inactive),19 µM (inactive),20.1 µM (inactive),2.98 µM (inactive),20.3 µM (inactive),17.7 µM (inactive)
C/C=C1\CN2CCC34c5ccccc5N(C)C35OCC4(C(=O)OC)C1CC25 (stereo unspecified),76.2 µM (inactive),61.4 µM (inactive),16 µM (inactive),74.6 µM (inactive),36.6 µM (inactive),23.1,65.8 µM (inactive),,41.6 µM (inactive),14 µM (inactive),21.4 µM (inactive),45.7 µM (inactive),,,83 µM (inactive),99.5 µM (inactive),41.6 µM (inactive),28.8 µM (inactive),70.6 µM (inactive),14 µM (inactive)
[N-]=[N+]=CC(=O)CCC(=O)N(c1ccccc1)c1ccccc1,> 10 µM (inactive),> 10 µM (inactive),,> 10 µM (inactive),> 10 µM (inactive),> 10,> 10 µM (inactive),> 10 µM (inactive),> 10 µM (inactive),> 10 µM (inactive),> 10 µM (inactive),> 10 µM (inactive),> 10 µM (inactive),> 10 µM (inactive),> 10 µM (inactive),> 10 µM (inactive),> 10 µM (inactive),> 10 µM (inactive),> 10 µM (inactive),
Cc1ccc(/C=C2\N=C(N3CCCCC3)NC2=O)cc1,> 100 µM (inactive),> 100 µM (inactive),> 100 µM (inactive),> 100 µM (inactive),> 100 µM (inactive),> 100,> 100 µM (inactive),95.9 µM (inactive),,94.4 µM (inactive),> 100 µM (inactive),> 100 µM (inactive),> 100 µM (inactive),64.1 µM (inactive),> 100 µM (inactive),,> 100 µM (inactive),58.1 µM (inactive),> 100 µM (inactive),58.1 µM (inactive)
N#C/C=C\c1ccc(-c2cc(C(F)(F)F)cc(C(F)(F)F)c2)o1,27.2 µM (inactive),91.6 µM (inactive),> 100 µM (inactive),> 100 µM (inactive),35.4 µM (inactive),,21.1 µM (inactive),94.4 µM (inactive),47.2 µM (inactive),38.7 µM (inactive),56.4 µM (inactive),57.4 µM (inactive),55.8 µM (inactive),23 µM (inactive),10 µM (inactive),18.7 µM (inactive),49.7 µM (inactive),,> 100 µM (inactive),21.6 µM (inactive)
COc1cc(CNC(=O)[C@H](Cc2ccc(O)cn2)NC(C)=O)cc(OC)c1,> 100 µM (inactive),> 100 µM (inactive),> 100 µM (inactive),> 100 µM (inactive),76.2 µM (inactive),> 100,> 100 µM (inactive),41 µM (inactive),36.3 µM (inactive),> 100 µM (inactive),92.5 µM (inactive),57.8 µM (inactive),> 100 µM (inactive),,> 100 µM (inactive),,> 100 µM (inactive),75 µM (inactive),> 100 µM (inactive),> 100 µM (inactive)

# From ChEMBL document CHEMBL1201862, “PubChem BioAssay data set” (2004)
